Literature values, collected in patent publication US20250000839A1, “PHARMACEUTICAL COMPOSITION COMPRISING ENAVOGLIFLOZIN” (DAEWOONG PHARMACEUTICAL CO., LTD., priority 2021, published 2025).

Tests used:
[1] = at a very low dose of 1/100th of the dose compared to the same class of drugs
[2] = target: T1, human SGLT2 (Homo sapiens, UniProt P31639); conditions: disclosed in U.S. Patent Publication No. 2015/0152075
T1 sequence (P31639 1-672): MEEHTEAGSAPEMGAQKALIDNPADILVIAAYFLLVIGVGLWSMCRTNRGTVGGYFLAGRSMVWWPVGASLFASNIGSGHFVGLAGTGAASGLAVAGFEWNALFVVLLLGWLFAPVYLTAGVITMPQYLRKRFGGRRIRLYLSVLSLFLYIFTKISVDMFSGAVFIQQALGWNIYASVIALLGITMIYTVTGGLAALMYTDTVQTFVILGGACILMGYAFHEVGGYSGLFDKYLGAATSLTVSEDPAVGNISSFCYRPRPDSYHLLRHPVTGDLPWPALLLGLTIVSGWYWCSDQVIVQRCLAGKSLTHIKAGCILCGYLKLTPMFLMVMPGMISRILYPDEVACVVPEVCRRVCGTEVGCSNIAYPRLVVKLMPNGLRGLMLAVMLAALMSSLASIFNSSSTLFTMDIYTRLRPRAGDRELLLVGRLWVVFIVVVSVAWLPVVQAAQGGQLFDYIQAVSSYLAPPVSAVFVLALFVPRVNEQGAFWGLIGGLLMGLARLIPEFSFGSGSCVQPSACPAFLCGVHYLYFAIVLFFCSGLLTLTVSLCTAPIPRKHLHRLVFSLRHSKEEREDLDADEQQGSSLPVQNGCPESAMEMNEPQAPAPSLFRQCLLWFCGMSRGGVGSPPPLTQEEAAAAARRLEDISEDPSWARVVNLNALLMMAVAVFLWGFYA

[3] = phase 2 clinical trials; 0.1 mg, 0.3 mg and 0.5 mg groups

Compound: OC[C@H]1O[C@@H](c2cc(Cc3ccc(C4CC4)cc3)c(Cl)c3c2CCO3)[C@H](O)[C@@H](O)[C@@H]1O [enavogliflozin, (2S,3R,4R,5S,6R)-2-(7-chloro-6-(4-cyclopropylbenzyl)-2,3-dihydrobenzofuran-4-yl)-6-(hydroxymethyl)tetrahydro-2H-pyran-3,4,5-triol]
- urinary sugar secretion (glucose excreted in urine) efficacy [1]: excellent
- inhibitory effect on human SGLT2 activity [2]: excellent inhibitory effect
- blood sugar-lowering effect compared to the placebo [3]: statistically significant blood sugar-lowering effect
